Assay results published in patent publication US9833497B2, “Human originated EGF domain proteins and use of the same” (CHENGDU SOURCEBIO LIMITED-LIABILITY COMPANY, priority 2013, dated 2017).

What was measured:
Type in all cases: cell-based
[1] = test system: Proteus vulgaris; experiment: MIC against Gram-negative bacteria: Proteus vulgaris; conditions: for MIC against P. vulgaris: Proteus vulgaris; for MIC against P. vulgaris / MIC P. vulgaris: 5×10^5 CFU/mL; for MIC P. vulgaris: two-fold serial dilution
Method in brief: (§1)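 MIC = lowest concentration of recombinant protein showing no growth. Test proteins: purified human-derived EGF domain proteins, two-fold dilution series, three wells per concentration; inoculum 5×10^5 CFU/mL in LB; incubation 37° C with shaking at 175 rpm.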

[2] = test system: Proteus mirabilis; experiment: MIC against Gram-negative bacteria: Proteus mirabilis; conditions: for MIC against P. mirabilis: Proteus mirabilis; for MIC against P. mirabilis / MIC P. mirabilis: 5×10^5 CFU/mL; for MIC P. mirabilis: two-fold serial dilution
Method in brief: as §1

[3] = test system: Enterobacter cloacae; experiment: MIC against Gram-negative bacteria: Enterobacter cloacae; conditions: for MIC against E. cloacae: Enterobacter cloacae; for MIC against E. cloacae / MIC E. cloacae: 5×10^5 CFU/mL; for MIC E. cloacae: two-fold serial dilution
Method in brief: as §1

[4] = test system: Moraxella catarrhalis; experiment: MIC against Gram-negative bacteria: Moraxella catarrhalis; conditions: for MIC against M. catarrhalis: Moraxella catarrhalis; for MIC against M. catarrhalis / MIC M. catarrhalis: 5×10^5 CFU/mL; for MIC M. catarrhalis: two-fold serial dilution
Method in brief: as §1

[5] = test system: Aeromonas hydrophila; experiment: MIC against Gram-negative bacteria: Aeromonas hydrophila; conditions: for MIC against A. hydrophila: Aeromonas hydrophila; for MIC against A. hydrophila / MIC A. hydrophila: 5×10^5 CFU/mL; for MIC A. hydrophila: two-fold serial dilution
Method in brief: as §1

[6] = test system: Pseudomonas aeruginosa; experiment: MIC against Gram-negative bacteria: Pseudomonas aeruginosa; conditions: for MIC against P. aeruginosa: Pseudomonas aeruginosa; for MIC against P. aeruginosa / MIC P. aeruginosa: 5×10^5 CFU/mL; for MIC P. aeruginosa: two-fold serial dilution
Method in brief: as §1

[7] = test system: E. coli BL21; experiment: MIC against Gram-negative bacteria: E. coli BL21; conditions: for MIC against E. coli BL21 / MIC E. coli BL21: 5×10^5 CFU/mL; for MIC E. coli BL21: two-fold serial dilution
Method in brief: as §1

[8] = test system: E. coli DH5α; experiment: Antibacterial activity: MIC and growth curve against E. coli DH5α in 96-well plate; conditions: minimal inhibitory concentration against E. coli DH5α; 96-well plate, 5×10^5 CFU/mL, 37° C., judged after 8 h
Method in brief: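 Log-phase DH5α (OD600 about 0.5, 37° C, 185 rpm in LB) was pelleted, resuspended in fresh LB and seeded at 5×10^5 CFU/mL with recombinant protein at 50, 25 and 12.5 μg/mL (two-fold series), in triplicate. Plates were shaken at 175 rpm, 37° C, and OD600 was read every 30 min. MIC was the lowest concentration with no growth.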

[9] = test system: Citrobacter diversus; experiment: MIC against Gram-negative bacteria: Citrobacter diversus; conditions: for MIC against C. diversus: Citrobacter diversus; for MIC against C. diversus / MIC C. diversus: 5×10^5 CFU/mL; for MIC C. diversus: two-fold serial dilution
Method in brief: as §1

[10] = test system: Klebsiella pneumonia; experiment: MIC against Gram-negative bacteria: Klebsiella pneumonia; conditions: for MIC against K. pneumonia: Klebsiella pneumonia; for MIC against K. pneumonia / MIC K. pneumonia: 5×10^5 CFU/mL; for MIC K. pneumonia: two-fold serial dilution
Method in brief: as §1

[11] = test system: Serratia marcescens; experiment: MIC against Gram-negative bacteria: Serratia marcescens; conditions: for MIC against S. marcescens: Serratia marcescens; for MIC against S. marcescens / MIC S. marcescens: 5×10^5 CFU/mL; for MIC S. marcescens: two-fold serial dilution
Method in brief: as §1

[12] = E. coli BL21, 10 h cultivation at 37° C.

Substance	MIC [8]	MIC P. vulgaris ([1]; 10 h cultivation at 37° C.)	MIC P. mirabilis ([2]; 10 h cultivation at 37° C.)	MIC E. cloacae ([3]; 10 h cultivation at 37° C.)	MIC M. catarrhalis ([4]; 10 h cultivation at 37° C.)	MIC A. hydrophila ([5]; 10 h cultivation at 37° C.)	MIC P. aeruginosa ([6]; 10 h cultivation at 37° C.)	MIC E. coli BL21 ([7]; 10 h cultivation at 37° C.)	MIC C. diversus ([9]; 10 h cultivation at 37° C.)	MIC K. pneumonia ([10]; 10 h cultivation at 37° C.)	MIC S. marcescens ([11]; 10 h cultivation at 37° C.)	further results
PRT896 (EVNECNSNPCVHGACRDSLNGYKCDCDPGWSGTNCD; listed as Homo sapiens)	25 µg/mL											MIC ([1]; P. vulgaris, 10 h cultivation at 37° C.): 50 µg/mL; MIC ([2]; P. mirabilis, 10 h cultivation at 37° C.): 25 µg/mL; MIC ([3]; E. cloacae, 10 h cultivation at 37° C.): 50 µg/mL; MIC ([4]; M. catarrhalis, 10 h cultivation at 37° C.): 12.5 µg/mL; MIC ([5]; A. hydrophila, 10 h cultivation at 37° C.): 12.5 µg/mL; MIC ([6]; P. aeruginosa, 10 h cultivation at 37° C.): 25 µg/mL; MIC [7, 12]: 50 µg/mL; MIC ([9]; C. diversus, 10 h cultivation at 37° C.): 50 µg/mL; MIC ([10]; K. pneumonia, 10 h cultivation at 37° C.): 12.5 µg/mL; MIC ([11]; S. marcescens, 10 h cultivation at 37° C.): 12.5 µg/mL
PRT1392 (TELCTMECGSHGVCSRGICQCEEGWVGPTC; listed as Homo sapiens)	12.5 µg/mL											MIC against P. vulgaris ([1]; 10 h cultivation at 37° C.): 25 µg/mL; MIC against P. mirabilis ([2]; 10 h cultivation at 37° C.): 12.5 µg/mL; MIC against E. cloacae ([3]; 10 h cultivation at 37° C.): 12.5 µg/mL; MIC against M. catarrhalis ([4]; 10 h cultivation at 37° C.): 25 µg/mL; MIC against A. hydrophila ([5]; 10 h cultivation at 37° C.): 25 µg/mL; MIC against P. aeruginosa ([6]; 10 h cultivation at 37° C.): 12.5 µg/mL; MIC against E. coli BL21 [7, 12]: 25 µg/mL; MIC against C. diversus ([9]; 10 h cultivation at 37° C.): 12.5 µg/mL; MIC against K. pneumonia ([10]; 10 h cultivation at 37° C.): 25 µg/mL; MIC against S. marcescens ([11]; 10 h cultivation at 37° C.): 50 µg/mL
PRT1090 (NNTRCLSNSCQNNSTCKDFSKDNDCSCSDTANNLDKDCD; listed as Homo sapiens)	25 µg/mL	12.5 µg/mL	25 µg/mL	50 µg/mL	50 µg/mL	12.5 µg/mL	50 µg/mL	12.5 µg/mL	25 µg/mL	12.5 µg/mL	25 µg/mL	
PRT1226 (YTASCQDMSCSKQGECLETIGNYTCSCYPGFYGPECE; listed as Homo sapiens)	25 µg/mL											MIC against P. vulgaris ([1]; 96-well plate, 37° C., 10 h): 12.5 µg/mL; MIC against P. mirabilis ([2]; 96-well plate, 37° C., 10 h): 50 µg/mL; MIC against E. cloacae ([3]; 96-well plate, 37° C., 10 h): 25 µg/mL; MIC against M. catarrhalis ([4]; 96-well plate, 37° C., 10 h): 12.5 µg/mL; MIC against A. hydrophila ([5]; 96-well plate, 37° C., 10 h): 25 µg/mL; MIC against P. aeruginosa ([6]; 96-well plate, 37° C., 10 h): 25 µg/mL; MIC against E. coli BL21 ([7]; E. coli BL21, 96-well plate, 37° C., 10 h): 50 µg/mL; MIC against C. diversus ([9]; 96-well plate, 37° C., 10 h): 50 µg/mL; MIC against K. pneumonia ([10]; 96-well plate, 37° C., 10 h): 12.5 µg/mL; MIC against S. marcescens ([11]; 96-well plate, 37° C., 10 h): 25 µg/mL
PRT1157 (DVSEFSLVPCQNGTDCIKISNDVMCICSPIFTDLLCK; listed as Homo sapiens)	12.5 µg/mL	25 µg/mL	12.5 µg/mL	12.5 µg/mL	25 µg/mL	25 µg/mL	50 µg/mL	25 µg/mL	50 µg/mL	25 µg/mL	50 µg/mL	
PRT1113 (HVDPCHSAPCARGRCHTHPDGRFECRCPPGFGGPRCR; listed as Homo sapiens)	12.5 µg/mL	50 µg/mL	25 µg/mL	12.5 µg/mL	12.5 µg/mL	12.5 µg/mL	12.5 µg/mL	12.5 µg/mL	50 µg/mL	12.5 µg/mL	25 µg/mL	
